According to patent US20190077795A1, “ARGININE […] INHIBITORS AND USES THEREOF” (Epizyme, Inc., priority 2014, published 2019):
Read-outs that look alike come from different tables or passages of the source.

Legend:
[1] = system: mono-methyl arginine in RKO cells; assay: RKO Methylation Assay, In Cell Western (ICW); assay type: cell-based; settings: 72 hours
human PRMT8 = human PRMT8 (Homo sapiens, UniProt Q9NR22); assay: PRMT8 Biochemical Assay; settings: PRMT8 IC50 (uM), peptide substrate, 3H-SAM Flashplate assay
Description: S-adenosylmethionine (SAM), S-adenosylhomocysteine (SAH), bicine, Tween20, dimethylsulfoxide (DMSO), bovine skin gelatin (BSG), isopropyl-3-D-thiogalactopyranoside (IPTG), and Tris(2-carboxyethyl)phosphine hydrochloride solution (TCEP) were purchased from Sigma-Aldrich at the highest level of purity possible. ^3H-SAM was purchase from American Radiolabeled Chemicals with a specific activity of 80 Ci/mmol. 384-well streptavidin Flashplates were purchased from PerkinElmer.
E. coli (BL21(DE3) Gold, Stratagene) made competent by the CaCl2 method were transformed with the PRMT8 construct and ampicillin selection. Protein over-expression was accomplished by growing the PRMT8 expressing E. coli clone and inducing expression with 0.3 mM IPTG at 16° C. The culture was grown for 12 hours, harvested by centrifugation, and stored at −80° C. for purification.
GST-tagged PRMT8 was eluted with 50 mM Tris, 2 mM glutathione, pH 7.8. Pooled fractions were cleaved by thrombin (10U) and dialysed in buffer A. GST was removed by reloading the cleaved protein sample onto glutathione sepharose column and PRMT8 was collected in the flow-through fractions. PRMT8 was purified further by ceramic hydroxyapatite chromatography. The column was washed with 50 mM phosphate buffer, 100 mM NaCl, 5% glycerol, 5 mM β-mercaptoethanol, pH 7.8 and PRMT8 was eluted by 100 mM phosphate in the same buffer. Protein was concentrated and buffer was exchanged to 50 mM Tris, 300 mM NaCl, 10% glycerol, 5 mM β-mercaptoethanol, pH 7.8 by ultrafiltration.
General Procedure for PRMT8 Enzyme Assays on Peptide Substrates.
The assays were all performed in a buffer consisting of 20 mM Bicine (pH=7.6), 1 mM TCEP, 0.005% BSG, and 0.002% Tween 20, prepared on the day of use. […] DMSO (1 ul) was added to Columns 11, 12, 23, 24, rows A-H for the maximum signal control and 1 ul of SAH, a known product and inhibitor of PRMT8, was added to columns 11, 12, 23, 24, rows I-P for the minimum signal control. A cocktail (40 ul) containing the PRMT8 enzyme was added by Multidrop Combi (Thermo-Fisher). The compounds were allowed to incubate with PRMT8 for 30 min at room temperature, then a cocktail (10 ul) containing ^3H-SAM and peptide was added to initiate the reaction (final volume=51 ul). […] The assays were stopped by the addition of non-radiolabeled SAM (10 ul) to a final concentration of 400 uM, which dilutes the ^3H-SAM to a level where its incorporation into the peptide substrate is no longer detectable. 50 ul of the reaction in the 384-well polypropylene plate was then transferred to a 384-well Flashplate and the biotinylated peptides were allowed to bind to the streptavidin surface for at least 1 hour before being washed once with 0.1% Tween20 in a Biotek ELx405 plate washer. The plates were then read in a PerkinElmer TopCount plate reader to measure the quantity of ^3H-labeled peptide bound to the Flashplate surface, measured as disintegrations per minute (dpm) or alternatively, referred to as counts per minute (cpm).
Where dpm=disintegrations per minute, cmpd=signal in assay well, and min and max are the respective minimum and maximum signal controls.
Where top and bottom are the normally allowed to float, but may be fixed at 100 or 0 respectively in a 3-parameter fit. The Hill Coefficient normally allowed to float but may also be fixed at 1 in a 3-parameter fit. Y is the % inhibition and X is the compound concentration.

human PRMT1 = target: T1, human PRMT1 (Homo sapiens, UniProt Q99873); assay: PRMT1 Biochemical Assay; settings: peptide substrate, 3H-SAM Flashplate assay; read-out: PRMT1 IC50
T1 construct: GST-tagged PRMT1; made in house; host or cells: High Five insect cells (baculovirus, pFastBac1)
How it was run: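 GST-tagged PRMT1 from baculovirus-infected cells, preincubated with compounds 30 min at room temperature in 20 mM Bicine pH 7.6, 1 mM TCEP, 0.005% BSG, 0.002% Tween 20. Reaction started with ³H-SAM plus biotinylated peptide, stopped with 300 µM cold SAM.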

human PRMT6 = target: T2, human PRMT6 (Homo sapiens, UniProt Q96LA8); assay: PRMT6 Biochemical Assay
T2 construct: Flag-PRMT6-His; made in house; host or cells: HEK 293F cells (BacMam baculovirus, pFastBacMam)

[2] = peptide substrate, 3H-SAM Flashplate assay, read-out: PRMT6 IC50

Sequence of human PRMT8 (Q9NR22 whole entry): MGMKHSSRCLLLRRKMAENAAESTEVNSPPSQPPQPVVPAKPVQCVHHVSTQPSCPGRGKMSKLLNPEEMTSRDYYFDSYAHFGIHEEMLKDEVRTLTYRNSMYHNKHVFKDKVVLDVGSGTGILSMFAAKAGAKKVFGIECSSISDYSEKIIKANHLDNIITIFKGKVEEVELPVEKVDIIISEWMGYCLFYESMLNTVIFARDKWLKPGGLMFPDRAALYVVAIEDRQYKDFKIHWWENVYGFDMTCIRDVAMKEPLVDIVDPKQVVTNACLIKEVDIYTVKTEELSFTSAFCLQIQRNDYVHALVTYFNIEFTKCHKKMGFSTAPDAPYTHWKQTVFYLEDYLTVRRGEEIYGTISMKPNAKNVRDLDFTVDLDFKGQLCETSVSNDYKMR
T2 sequence (Q96LA8 with tags, fused parts or gaps): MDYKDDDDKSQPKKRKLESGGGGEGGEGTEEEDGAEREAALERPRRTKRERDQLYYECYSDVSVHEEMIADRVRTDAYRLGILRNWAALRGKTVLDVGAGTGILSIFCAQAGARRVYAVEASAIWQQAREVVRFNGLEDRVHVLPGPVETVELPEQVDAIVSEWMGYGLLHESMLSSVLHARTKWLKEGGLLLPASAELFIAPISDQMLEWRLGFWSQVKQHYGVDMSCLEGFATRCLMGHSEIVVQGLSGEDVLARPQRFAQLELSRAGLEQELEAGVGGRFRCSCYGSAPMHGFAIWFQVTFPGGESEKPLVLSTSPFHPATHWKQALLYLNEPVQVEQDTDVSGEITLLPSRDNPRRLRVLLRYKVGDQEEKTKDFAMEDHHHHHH
T1 sequence (Q99873 with tags, fused parts or gaps): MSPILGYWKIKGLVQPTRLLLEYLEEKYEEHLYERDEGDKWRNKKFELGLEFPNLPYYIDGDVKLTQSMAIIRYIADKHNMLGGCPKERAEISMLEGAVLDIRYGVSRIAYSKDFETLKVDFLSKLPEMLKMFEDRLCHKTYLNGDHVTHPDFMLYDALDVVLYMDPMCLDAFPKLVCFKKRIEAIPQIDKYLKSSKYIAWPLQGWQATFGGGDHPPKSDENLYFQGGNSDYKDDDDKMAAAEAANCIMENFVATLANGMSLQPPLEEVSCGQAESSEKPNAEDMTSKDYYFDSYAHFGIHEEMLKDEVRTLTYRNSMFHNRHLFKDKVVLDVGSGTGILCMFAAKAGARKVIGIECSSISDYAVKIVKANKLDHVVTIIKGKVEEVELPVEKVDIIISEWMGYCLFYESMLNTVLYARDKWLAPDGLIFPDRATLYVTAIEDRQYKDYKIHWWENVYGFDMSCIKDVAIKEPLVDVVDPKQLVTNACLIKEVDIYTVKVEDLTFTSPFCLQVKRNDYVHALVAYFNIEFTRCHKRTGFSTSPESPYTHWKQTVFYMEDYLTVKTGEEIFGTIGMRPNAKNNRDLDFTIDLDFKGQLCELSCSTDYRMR

SMILES	IC50 (human PRMT8) [µM]	IC50 (human PRMT1) [nM]	IC50 (human PRMT6; [2]) [µM]	ICW EC30 [1] [µM]	IC50 (human PRMT6; PRMT6 IC50 (uM)) [µM]
CNCCN(C)Cc1c[nH]nc1-c1ccc(OC2CCOCC2)nc1 [Compound 119]	0.123	41.5	0.0329	1.292	
CNCCN(C)Cc1c[nH]nc1-c1ccc(OCCOC)nc1 [Compound 121]	0.163	42.3		1.472	0.0886
CCOCC(C)(C)c1cc(OCCOC)cc(-c2n[nH]cc2CN(C)CCNC)c1 [Compound 122]	0.371	43	> 10	6.626	
CNCCN(C)Cc1c[nH]nc1-c1cc(OC2CCOCC2)cc(C(F)(F)F)c1 [Compound 123]	0.376	43.9	1.47	18.364	
CN(CCN)Cc1c[nH]nc1-c1ccc(N2CCOCC2)cc1 [Compound 124]	0.413	44.3	0.107	3.978	
CNCCN(C)Cc1cnn(C)c1-c1cccc(OC2CC2)c1 [Compound 126]	0.0446	45.5	0.0737	1.272	
CCN(c1ccc(-c2n[nH]cc2CN(C)CCNC)cn1)C1CCOCC1 [Compound 127]	0.467	45.9	3.45	9.19	
CNCCN(C)Cc1cnn(C)c1-c1cccc(CC(C)C)c1 [Compound 129]	0.0877	47.5	0.219	7.415	
CNCCN(C)Cc1c[nH]nc1-c1cc(OCCCO)cc(C(F)(F)F)c1 [Compound 130]	0.3	48.9	0.619	11.844	
CCOCC(C)c1cc(OCCOC)cc(-c2n[nH]cc2CN(C)CCNC)c1 (centres unmarked) [Compound 132]	0.15	49.4	> 10	3.608	
CNCCN(C)Cc1n[nH]cc1-c1cc(C(=O)C(C)C)cc(C(F)(F)F)c1 [Compound 134]	0.168	121	2.07	>6.7	
CNCCN(C)Cc1cnn(C2CCC2)c1-c1ccc(OC(C)C)cc1 [Compound 141]	0.056	65.8	0.0869	0.496	

The next lines start with results.

IC50 (human PRMT8) [µM]	IC50 (human PRMT1) [nM]	IC50 (human PRMT6; [2]) [µM]	SMILES	ICW EC30 [1] [µM]	IC50 (human PRMT6; PRMT6 IC50 (uM)) [µM]
0.269	45.5	0.0548	CNCCN(C)Cc1c[nH]nc1-c1ccc(OCCC(O)CO)cc1 (centres unmarked) [Compound 125]	10.45	
0.131	46.4	0.0343	CNCCN(C)Cc1c[nH]nc1-c1ccc(OCCCS(C)(=O)=O)cc1 [Compound 128]	13.334	
0.0336	5.85	0.00405	CNCCN(C)Cc1c[nH]nc1-c1ccc(OCCOc2ccc(OC)cc2)cc1 [Compound 135]	0.086	
0.0124	5.21	0.00825	CNCCN(C)Cc1c[nH]nc1-c1ccc(N(C)CCCOc2ccc(OC)cc2)cc1 [Compound 136]	0.1762	
0.0366	6.08	0.00977	CNCCN(C)Cc1c[nH]nc1-c1ccc(OCCOc2ccc(C(F)(F)F)cc2)cc1 [Compound 138]	0.3278	
0.0526	6.83	0.00703	CNCCN(C)Cc1c[nH]nc1-c1ccc(OCCOc2ccc(OC(F)(F)F)cc2)cc1 [Compound 140]	0.47	
0.0258	6.69	0.00448	CNCCN(C)Cc1c[nH]nc1-c1ccc(OCCOc2cccc(CO)c2)cc1 [Compound 143]	0.5443	
0.03	6.43	0.00574	CNCCN(C)Cc1c[nH]nc1-c1ccc(OCCOc2ccc(C(C)C)cc2)cc1 [Compound 144]	0.6546	
